# Experimental data taken from ChEMBL document CHEMBL1781994, “Estrogenic activity of chemical constituents from Tephrosia candida” (J Nat Prod, 2011).
# pIC50: −log10 of the molar value.
# Assays:
# [1] = molecular target: T1, Estrogen receptor (Homo sapiens, UniProt P03372)
# T1 sequence (P03372 whole entry): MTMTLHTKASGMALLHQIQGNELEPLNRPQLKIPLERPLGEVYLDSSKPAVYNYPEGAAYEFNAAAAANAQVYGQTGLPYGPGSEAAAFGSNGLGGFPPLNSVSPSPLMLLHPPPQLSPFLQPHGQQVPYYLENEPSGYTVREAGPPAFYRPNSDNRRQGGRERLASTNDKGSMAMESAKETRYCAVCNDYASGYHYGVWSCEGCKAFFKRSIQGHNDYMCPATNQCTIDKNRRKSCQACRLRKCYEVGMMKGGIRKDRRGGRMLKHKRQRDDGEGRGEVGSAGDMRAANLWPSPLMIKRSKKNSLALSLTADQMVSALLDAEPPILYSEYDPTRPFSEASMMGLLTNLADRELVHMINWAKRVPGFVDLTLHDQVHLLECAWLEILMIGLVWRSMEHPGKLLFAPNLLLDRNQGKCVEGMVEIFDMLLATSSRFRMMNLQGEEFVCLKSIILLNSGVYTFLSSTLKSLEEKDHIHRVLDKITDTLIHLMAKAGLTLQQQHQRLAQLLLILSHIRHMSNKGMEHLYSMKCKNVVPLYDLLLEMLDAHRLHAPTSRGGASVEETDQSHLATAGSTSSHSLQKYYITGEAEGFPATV
# Description: Inhibition of fluorescence-labeled 17beta-estradiol binding to ERalpha receptor after 2 hrs by fluorometric analysis
# [2] = molecular target: T2, Estrogen receptor (Homo sapiens) (UniProt P03372); test: Inhibition of fluorescence-labeled 17beta-estradiol binding to ERalpha receptor at 5 mM after 2 hrs by fluorometric analysis
# T2 sequence (whole entry): T1 sequence (P03372 whole entry)
SMILES,pIC50 [1],inhibition [2]
COc1ccc2c(c1)OC[C@]1(O)c3cc4c(cc3O[C@H]21)OCO4,< 2.30,36.2%
COc1cc(O)c(/C=C\C(C)(C)O)c2c1C(=O)C[C@@H](c1ccccc1)O2 [TEPHROCANDIDIN A],2.46,70.1%

# The next compounds have a higher pIC50 [1] than those just listed; values first:
pIC50 [1],inhibition [2],SMILES
2.55,67.3%,C=C1CC[C@@H](O)[C@]2(C)CC[C@@](O)(C(C)C)[C@H](O)[C@@H]12
3.00,86.2%,COc1cc(O)c(/C=C\C(C)(C)O)c2c1C(=O)CC(c1ccc(O)cc1)O2 (stereo not given) [TEPHROCANDIDIN B]
4.10,95.1%,COc1cc(O)c(/C=C\C(C)(C)O)c(O)c1C(=O)/C=C/c1ccc(O)cc1 [CANDIDACHALCONE]
